Test results as given in ChEMBL document CHEMBL5236618, “Discovery and Optimization of Potent, Selective, and Brain-Penetrant 1-Heteroaryl-1H-Indazole LRRK2 Kinase Inhibitors for the Treatment of Parkinson's Disease” (J Med Chem, 2022).

Columns and labels:
[1] = Clearance in rat at 0.1 mg/kg, iv administered as cassette dose measured upto 24 hrs by LC-MS/MS method; format: ADME, organism-based; details: in vivo
[2] = Unbound clearance in rat at 0.1 mg/kg, iv administered as cassette dose measured upto 24 hrs by LC-MS/MS method; format: ADME, organism-based; details: in vivo
[3] = Mean residence time in rat at 0.1 mg/kg, iv administered as cassette dose measured upto 24 hrs by LC-MS/MS method; format: ADME, organism-based; details: in vivo
[4] = Unbound brain-to-plasma concentration ratio in non human primates; format: ADME, cell-free; details: read-out: K(p,uu,brain)
[5] = Unbound brain-to-plasma concentration ratio in rat; format: ADME, cell-free; details: read-out: K(p,uu,brain)
[6] = Unbound clearance in rat at 10 mg/kg, po or 2 mg/kg, iv measured upto 24 hrs by LC-MS/MS method; format: ADME, organism-based; details: in vivo
[7] = Mean residence time in rat at 10 mg/kg, po or 2 mg/kg, iv measured upto 24 hrs by LC-MS/MS method; format: ADME, organism-based; details: in vivo
[8] = Oral bioavailability in rat at 10 mg/kg measured upto 24 hrs by LC-MS/MS method; format: ADME, organism-based; details: in vivo
[9] = Unbound clearance in dog at 3 mg/kg, po or 0.5 mg/kg, iv measured upto 24 hrs by LC-MS/MS method; format: ADME, organism-based, Canis lupus familiaris; details: in vivo
[10] = Mean residence time in dog at 3 mg/kg, po or 0.5 mg/kg, iv measured upto 24 hrs by LC-MS/MS method; format: ADME, organism-based, Canis lupus familiaris; details: in vivo
[11] = Oral bioavailability in dog at 3 mg/kg measured upto 24 hrs by LC-MS/MS method; format: ADME, organism-based, Canis lupus familiaris; details: in vivo
[12] = Clearance in rhesus monkey at 2 mg/kg, iv measured upto 24 hrs by LC-MS/MS method; format: ADME, organism-based, Macaca mulatta; details: in vivo
[13] = Unbound clearance in rhesus monkey at 2 mg/kg, iv measured upto 24 hrs by LC-MS/MS method; format: ADME, organism-based, Macaca mulatta; details: in vivo
[14] = Mean residence time in rhesus monkey at 2 mg/kg, iv measured upto 24 hrs by LC-MS/MS method; format: ADME, organism-based, Macaca mulatta; details: in vivo

Structure (SMILES)	clearance [1] [mL/min/kg]	CL free [2] [mL/min/kg]	MRT [3] [h]	Kp uu [4]	Kp uu [5]	CL free [6] [mL/min/kg]	MRT [7] [h]	bioavailability [8] [%]	CL free [9] [mL/min/kg]	MRT [10] [h]	bioavailability [11] [%]	clearance [12] [mL/min/kg]	CL free [13] [mL/min/kg]	MRT [14] [h]
C[C@@H]1CN(c2cc(-c3ncc4ccc(-c5cnn(C)c5)cn34)ccn2)C[C@H](C)O1	98	5850	0.5	–	–	–	–	–	–	–	–	–	–	–
C[C@@H]1CN(c2cc(-c3n[nH]c4ccc(OC5(C)CC5)cc34)ncn2)C[C@H](C)O1 [MLi-2]	–	–	–	0.4	0.5	12700	2	38	3200	7	100	16	3400	1.5
